Assay results taken from ChEMBL document CHEMBL3525998, “Metabolism of saikosaponin a in rats: diverse oxidations on the aglycone moiety in liver and intestine in addition to hydrolysis of glycosidic bonds” (Drug Metab Dispos, 2013).

Key:
Type in all cases: ADME, organism-based
[1] = Drug excretion in Sprague-Dawley rat bile assessed as metabolite 3-keto-saikogenin f level at 50 mg/kg, po administered through gavage by LC-DAD-IT-TOF-MS analysis; design: dose 50 mg/kg, route oral; conditions: in vivo
[2] = tested on: Plasma; assay: Drug metabolism in Sprague-Dawley rat plasma assessed as metabolite hydroxysaikosaponin a formation at 50 mg/kg, po administered through gavage by LC-DAD-IT-TOF-MS analysis; design: dose 50 mg/kg, route oral; conditions: in vivo
[3] = tested on: Plasma; assay: Drug metabolism in Sprague-Dawley rat plasma assessed as metabolite 3-keto-saikogenin f formation at 15 mg/kg, iv by LC-DAD-IT-TOF-MS analysis; design: dose 15 mg/kg, route intravenous; conditions: in vivo
[4] = Drug excretion in Sprague-Dawley rat feces at 15 mg/kg, iv by LC-DAD-IT-TOF-MS analysis; design: dose 15 mg/kg, route intravenous; conditions: in vivo
[5] = Drug excretion in Sprague-Dawley rat urine assessed as metabolite saikogenin f level at 15 mg/kg, iv by LC-DAD-IT-TOF-MS analysis; design: dose 15 mg/kg, route intravenous; conditions: in vivo
[6] = Drug excretion in Sprague-Dawley rat feces assessed as metabolite delta1-saikogenin f level at 15 mg/kg, iv by LC-DAD-IT-TOF-MS analysis; design: dose 15 mg/kg, route intravenous; conditions: in vivo
[7] = tested on: Plasma; assay: Drug metabolism in Sprague-Dawley rat plasma assessed as metabolite prosaikogenin f formation at 50 mg/kg, po administered through gavage by LC-DAD-IT-TOF-MS analysis; design: dose 50 mg/kg, route oral; conditions: in vivo
[8] = Drug excretion in Sprague-Dawley rat urine assessed as metabolite prosaikogenin f level at 15 mg/kg, iv by LC-DAD-IT-TOF-MS analysis; design: dose 15 mg/kg, route intravenous; conditions: in vivo
[9] = Drug excretion in Sprague-Dawley rat urine at 50 mg/kg, po administered through gavage by LC-DAD-IT-TOF-MS analysis; design: dose 50 mg/kg, route oral; conditions: in vivo
[10] = tested on: Plasma; assay: Drug metabolism in Sprague-Dawley rat plasma assessed as metabolite saikogenin f-27-oic acid formation at 15 mg/kg, iv by LC-DAD-IT-TOF-MS analysis; design: dose 15 mg/kg, route intravenous; conditions: in vivo
[11] = Drug excretion in Sprague-Dawley rat feces assessed as metabolite delta1-saikogenin f level at 50 mg/kg, po administered through gavage by LC-DAD-IT-TOF-MS analysis; design: dose 50 mg/kg, route oral; conditions: in vivo
[12] = Drug excretion in Sprague-Dawley rat bile assessed as metabolite 3-keto-saikogenin f level at 15 mg/kg, iv by LC-DAD-IT-TOF-MS analysis; design: dose 15 mg/kg, route intravenous; conditions: in vivo
[13] = Drug excretion in Sprague-Dawley rat urine assessed as metabolite delta1-saikogenin f level at 50 mg/kg, po administered through gavage by LC-DAD-IT-TOF-MS analysis; design: dose 50 mg/kg, route oral; conditions: in vivo
[14] = tested on: Plasma; assay: Drug metabolism in Sprague-Dawley rat plasma assessed as metabolite saikogenin f formation at 15 mg/kg, iv by LC-DAD-IT-TOF-MS analysis; design: dose 15 mg/kg, route intravenous; conditions: in vivo
[15] = Drug recovery in po dosed rat excreted feces measured over 0 to 24 hrs after drug administration by HPLC analysis relative to starting drug dose; conditions: faeces, read-out: Drug recovery
[16] = Drug excretion in Sprague-Dawley rat feces assessed as metabolite prosaikogenin f level at 50 mg/kg, po administered through gavage by LC-DAD-IT-TOF-MS analysis; design: dose 50 mg/kg, route oral; conditions: in vivo
[17] = tested on: Plasma; assay: Drug metabolism in Sprague-Dawley rat plasma assessed as metabolite hydroxysaikosaponin a formation at 15 mg/kg, iv by LC-DAD-IT-TOF-MS analysis; design: dose 15 mg/kg, route intravenous; conditions: in vivo
[18] = Drug excretion in Sprague-Dawley rat feces assessed as metabolite hydroxysaikosaponin a level at 50 mg/kg, po administered through gavage by LC-DAD-IT-TOF-MS analysis; design: dose 50 mg/kg, route oral; conditions: in vivo
[19] = tested on: Plasma; assay: Drug metabolism in Sprague-Dawley rat plasma assessed as metabolite saikogenin f-27-oic acid formation at 50 mg/kg, po administered through gavage by LC-DAD-IT-TOF-MS analysis; design: dose 50 mg/kg, route oral; conditions: in vivo
[20] = Drug excretion in Sprague-Dawley rat feces assessed as metabolite 3-keto-saikogenin f level at 15 mg/kg, iv by LC-DAD-IT-TOF-MS analysis; design: dose 15 mg/kg, route intravenous; conditions: in vivo

Drug excretion [1]: metabolite_not_detected | Drug metabolism [2]: metabolite_not_detected | Drug metabolism [3]: metabolite_not_detected | Drug excretion [4]: metabolite_not_detected | Drug excretion [5]: metabolite_not_detected | Drug excretion [6]: metabolite_not_detected | Drug metabolism [7]: metabolite_detected | Drug excretion [8]: metabolite_detected | Drug excretion [9]: metabolite_detected | Drug metabolism [10]: metabolite_not_detected | Drug excretion [11]: metabolite_detected | Drug excretion [12]: metabolite_not_detected | Drug excretion [13]: metabolite_detected | Drug metabolism [14]: metabolite_not_detected | dose excreted [15]: > 50% | Drug excretion [16]: metabolite_detected | Drug metabolism [17]: metabolite_not_detected | Drug excretion [18]: metabolite_not_detected | Drug metabolism [19]: metabolite_not_detected | Drug excretion [20]: metabolite_not_detected
SMILES: C[C@H]1O[C@@H](O[C@H]2CC[C@@]3(C)[C@@H](CC[C@]4(C)[C@@H]3C=C[C@]35OC[C@@]6(CCC(C)(C)C[C@H]63)[C@@H](O)C[C@]54C)[C@]2(C)CO)[C@H](O)[C@@H](O[C@@H]2O[C@H](CO)[C@@H](O)[C@H](O)[C@H]2O)[C@H]1O [SAIKOSAPONIN A]
